TGI and GI50 data for 28 compounds are collected here from PubChem BioAssay (NCI).

SMILES strings stand for the structures.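 Briefly, cells in 96-well plates were exposed to five compound concentrations for 48 h, and endpoints were estimated by linear interpolation. Here, GI50 denotes the concentration required for 50% inhibition of growth. Definition used: TGI = concentration required for complete inhibition of growth.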 Bounds are passed on as bounds.

What all share (experiment): NCI tumour cell line growth inhibition, 48 h
In assay [1] the test system is SK-MEL-2 melanoma.
Assay [2] has as its system OVCAR-3 ovarian.
For assay [3], the system named is CCRF-CEM leukemia.
Assay [4] has as its system COLO 205 colon.
Assay [5] concerns HT29 colon.
Assay [6] has as its system SNB-75 CNS.
Assay [7] deals with SF-295 CNS.
Assay [8] concerns U251 CNS.
For assay [9], the system named is SF-539 CNS.
Assay [10] concerns MDA-MB-231 breast.

Consider `CC(=O)Oc1cc2c(cc1OC(C)=O)C1(C)CCC2(C)c2cc(OC(C)=O)c(OC(C)=O)cc21`, for which the TGI is 66.4 µM in assay [1]; 29.7 µM in assay [2]; 11.4 µM in assay [3]; > 100 µM in [4]; > 100 µM in [5]; 91.7 µM in assay [6]. The same compound gave a TGI in [7] of 58.8 µM.
On to `Cc1cn(C2CC(OC(=O)c3ccc(Cl)cc3)C(COC(=O)c3ccc(Cl)cc3)O2)c(=O)[nH]c1=O` (stereo not drawn), for which the TGI in assay [1], in assay [2], in [3], in [8], in assay [4] and in assay [5] was > 100 µM in each case. In addition, the TGI in [6] and in assay [7] was > 100 µM throughout.
Turning to `COC(=O)C(=O)CC(=O)CCn1[nH]c(=O)c(Cl)c(Cl)c1=O`, the TGI in assay [1], in [2], in assay [8], in assay [4], in assay [5] and in [6] was > 100 µM each time. Besides, the TGI in [9] and in assay [7] was > 100 µM in each case.
For the compound `CCC[CH2][Sn]([CH2]CCC)([O]C(=O)CN)[O]C(=O)CN`, the GI50 in assay [1] was 18.5 µM; in assay [2], 27.8 µM; in [3] it was 5.93 µM; in [8], 26 µM; in assay [4], 42.9 µM; in [5], > 100 µM. Moreover, the GI50 in [6] was 29.6 µM; in assay [9], 57 µM; in assay [7] it was 34.5 µM. Besides, the TGI in assay [1] is 48.8 µM; in [2], > 100 µM; in assay [3], 51.8 µM; in assay [8], 80.7 µM; in assay [4] it was > 100 µM; in [5] it was > 100 µM. For the same compound, the TGI in [6], in assay [9] and in assay [7] was > 100 µM throughout.
In the case of `CC(=O)c1ccc(NC(=O)/C(CC(=O)c2sc(-c3cccnc3)nc2C)=N/NC(N)=O)cc1`, the TGI in [1] is > 100 µM; in assay [2], > 100 µM; in assay [3], 66.5 µM; in assay [8] it was > 100 µM; in assay [4] it was 35.2 µM; in [5] it was > 100 µM. Also, the TGI in assay [7] is > 100 µM.
For `O=C(Nc1ccc(Cl)cc1)C1C(=O)C(=O)N(c2ccc(Cl)cc2)C1=O` (stereo not drawn), the TGI in assay [1], in assay [2], in [3], in assay [8], in assay [4] and in [5] was > 100 µM each time. For the same compound, the TGI in assay [6], in assay [9] and in [7] was > 100 µM each time.
Consider `Cc1ccc(S(=O)(=O)N/N=C2\CCCCC23CCC(=O)NC3)cc1` (stereo not drawn), for which the TGI in [1], in [2], in assay [3], in assay [8], in assay [4] and in assay [6] was > 100 µM throughout. Also, the TGI in assay [9] is > 100 µM.
`COc1ccc([C@@]2(O)c3c(ccc(O)c3OC)[C@H]2OC)c(OC)c1`: the TGI in assay [1], in [2], in assay [3], in assay [8], in [4] and in [5] was > 100 µM throughout. The TGI in assay [6] and in [7] was > 100 µM each time.
As to `N#C/C(=C/c1cccc(Oc2ccccc2)c1)c1ccccc1`, the TGI in assay [1], in assay [3], in [8], in assay [4], in [5] and in assay [6] was > 100 µM in each case. Moreover, the TGI in assay [9] and in [7] was > 100 µM each time.
`COc1cc(NS(=O)(=O)c2ccc(C)cc2)c2nccnc2c1`: the TGI was 54.5 µM in [1]; > 100 µM in assay [2]; 81.2 µM in [3]; 89.3 µM in assay [8]; 90.1 µM in assay [4]; > 100 µM in assay [5]. For the same compound, the TGI in [6] is 78.1 µM; in assay [9], 83.8 µM; in [7], > 100 µM.
In the case of `NC1=NN(c2ccccc2)C(=O)C1C(=O)CCC(=O)Nc1cccc(Cl)c1` (stereo not drawn), the TGI in [1], in [2], in assay [3], in [8], in assay [4] and in [5] was > 100 µM throughout. For the same compound, the TGI in assay [6], in assay [9] and in [7] was > 100 µM in each case.
As to `CC(C)CNc1nc(-c2ccccc2Cl)nc2ccccc12`, the GI50 is 23.5 µM in assay [1]; 17 µM in assay [2]; 18.8 µM in assay [3]; 16.9 µM in [8]; 20.3 µM in [4]; 14.9 µM in assay [7]. The TGI came to 63.4 µM in assay [1]; 31.2 µM in [2]; 43.3 µM in assay [3]; 30.5 µM in assay [8]; 50 µM in assay [4]; 28.4 µM in assay [7].
For `Cc1ccc(S(=O)(=O)OC2CC=CC2)cc1`, the TGI in assay [1], in assay [2], in [3], in assay [8], in assay [4] and in [5] was > 100 µM each time. Further, the TGI in [6] and in [7] was > 100 µM each time.
For the compound `COc1ccc(C=O)cc1O[Si](C)(C)C(C)(C)C`, the TGI in [1], in [2], in assay [3], in assay [8], in [4] and in assay [5] was > 100 µM in each case. Also, the TGI in assay [6], in [9] and in assay [7] was > 100 µM in each case.
On to `N#CCC(=O)N/N=C1/C(=O)N(c2ccc(Cl)cc2)C(=O)C(=O)C1c1nc2ccccc2s1` (stereo not drawn), for which the TGI in [1] is > 100 µM; in assay [2], > 100 µM; in assay [8], > 100 µM; in assay [4], > 100 µM; in assay [5], > 100 µM; in assay [6], 63.7 µM. The TGI in assay [7] is > 100 µM.
On to `C[C@]12CC=CC(=O)[C@@]1(C)CCC(=O)C2`, for which the TGI in assay [1], in assay [2], in assay [3], in assay [8], in assay [5] and in assay [6] was > 100 µM throughout. For the same compound, the TGI in assay [9] and in assay [7] was > 100 µM throughout.
`O=C1N/C(=C\[N+](=O)[O-])c2ccccc21`: the TGI was > 100 µM in assay [2]; > 100 µM in assay [3]; > 100 µM in assay [8]; > 100 µM in assay [4]; > 100 µM in [5]; 93.3 µM in assay [6]. The TGI in assay [9] and in assay [7] was > 100 µM in each case.
`O=C(Nc1cccc(O)c1)C(=O)C1C(=O)NC(=S)NC1=O`: the TGI in [2], in assay [3], in [8], in assay [4], in assay [5] and in assay [6] was > 100 µM in each case. Also, the TGI in assay [9] and in assay [7] was > 100 µM throughout.
Take `CC1(O)C(C)(O)C2(C)O[Te]3(OC12C)OC1(C)C(C)(O)C(C)(O)C1(C)O3` (stereo not drawn): the TGI is > 100 µM in assay [1]; 41.5 µM in assay [2]; 22.9 µM in [3]; 23.8 µM in assay [8]; > 100 µM in assay [4]; > 100 µM in assay [5]. Also, the TGI in assay [6], in assay [9] and in [7] was > 100 µM throughout.
Turning to `NC(CCCC(N)P(=O)(O)O)P(=O)(O)O` (stereo not drawn), the TGI in assay [2], in [3], in assay [8], in assay [4], in [5] and in assay [6] was > 100 µM throughout. Further, the TGI in assay [9] and in [7] was > 100 µM each time.
Consider `CC(=O)C1C(c2ccccc2)C2(C)OC(=O)C(C#N)C12C` (stereo not drawn), for which the TGI in assay [1], in assay [2], in assay [3], in [8], in assay [4] and in assay [6] was > 100 µM throughout. The TGI in assay [9] and in assay [7] was > 100 µM throughout.
For the compound `COc1cc(NCC(C#N)C#N)ccc1N=Nc1ccc(Cl)cc1`, the TGI in assay [1] turned out to be 46.9 µM; in [2], 38.4 µM; in [3], 61.9 µM; in assay [8] it was 37 µM; in assay [4] it was 31.7 µM; in assay [5], 30.5 µM. The TGI in assay [6] was 90.1 µM; in assay [9], 51.6 µM; in assay [7], 51.3 µM.
Regarding `O=C(Nc1ccc(C(F)(F)F)cc1[N+](=O)[O-])C(=O)C1NC(=S)NC1=O` (stereo not drawn), the TGI in assay [1] is > 100 µM; in assay [2], > 100 µM; in [3], > 100 µM; in [8], > 100 µM; in [4], 26.6 µM; in assay [5], > 100 µM. The TGI was 97.2 µM in assay [6], > 100 µM in [9] and > 100 µM in assay [7].
Regarding `O=S(=O)(C1=CC(S(=O)(=O)c2ccccc2)CN(Cc2ccccc2)C1c1cccc2ccccc12)c1ccccc1` (stereo not drawn), the TGI in assay [1], in assay [2], in [3], in assay [8], in assay [5] and in [6] was > 69 µM each time. Also, the TGI in [9] and in [7] was > 69 µM each time.
As for `CCCC1(CC(=O)O)OCCc2c1[nH]c1ccccc21` (stereo not drawn), the TGI in assay [1], in assay [2], in assay [3], in [8], in assay [4] and in [6] was > 100 µM throughout. Also, the TGI in assay [9] and in [7] was > 100 µM in each case.
For `CC(=O)Oc1c(C)c(-c2ccccc2)c(C)c(-c2ccccc2)c1C(=S)c1ccccc1`, the TGI in assay [1], in [2], in assay [3], in [8], in [4] and in assay [5] was > 100 µM each time. In addition, the TGI in assay [6], in assay [9] and in assay [7] was > 100 µM in each case.
As to `O=C1NC(=S)S/C1=C/c1ccc2c(c1)OCO2`, the GI50 in assay [2] is 65.1 µM; in [3] it was > 100 µM; in assay [8], > 100 µM; in assay [4], > 100 µM; in assay [5] it was > 100 µM; in assay [9], > 100 µM. The GI50 in assay [10] is > 100 µM; in assay [7], 88.3 µM. The TGI in assay [2], in assay [3], in assay [8], in [4], in assay [5] and in [9] was > 100 µM each time. Moreover, the TGI in assay [10] and in [7] was > 100 µM each time.
In the case of `CCOC(=O)[CH-]C(=O)C12CC3CC(CC(C3)C1)C2.CCOC(=O)[CH-]C(=O)C12CC3CC(CC(C3)C1)C2.CC[O-].CC[O-].[Ti+4]`, the GI50 in assay [2] was > 100 µM; in [3], > 100 µM; in [8], > 100 µM; in assay [4], > 100 µM; in assay [5] it was > 100 µM; in assay [6] it was 36.9 µM. For the same compound, the GI50 in assay [9] and in assay [7] was > 100 µM throughout. Further, the TGI in assay [2], in assay [3], in [8], in assay [4], in assay [5] and in [6] was > 100 µM in each case. In addition, the TGI in assay [9] and in assay [7] was > 100 µM in each case.
